{
  "source": "patent US20070232589A1",
  "about": "“Pharmaceutical Composition And Method For Treating Neurodegenerative Disorders” (Myriad Genetics, Incorporated, priority 2004, published 2007)",
  "origin": "cited, not measured here",
  "key": {"Aβ42 [1]": {"test_system": "Aβ42", "conditions": "transgenic mouse model"}, "[2]": {"conditions": "50 mg and 100 mg doses, human subjects"}, "Aβ42 [3]": {"test_system": "Aβ42", "conditions": "CHO cells"}, "[4]": {"conditions": "clinical trial; rofecoxib 25 mg daily"}, "[5]": {"conditions": "in vivo"}, "[6]": {"conditions": "patients having mild cognitive impairment"}, "[7]": {"conditions": "in vivo excitotoxic model"}},
  "note": "Where two headings read alike, the source gives them in different places.",
  "data": [
    {"smiles": "C[C@@H](C(=O)O)c1ccc(-c2ccccc2)c(F)c1", "note": "[(R)-2-(2-fluoro-4-biphenylyl)propionic acid]", "values": [
      {"measurement": "Aβ42 lowering", "setting": "Aβ42 [1]", "result": "lower Aβ42"},
      {"measurement": "inhibition of COX activity", "setting": "COX", "result": "negligibly inhibits COX activity"},
      {"measurement": "analgesic effect", "setting": "[2]", "result": "produced an analgesic effect"},
      {"measurement": "Aβ42 lowering", "setting": "Aβ42 [3]", "result": "lower Aβ42"}
    ]},
    {"smiles": "COc1ccc2cc([C@H](C)C(=O)O)ccc2c1", "note": "[Naproxen]", "values": [
      {"measurement": "efficacy for treating AD", "setting": "[4]", "result": "failed to show efficacy"}
    ]},
    {"smiles": "CC12CC3CC(C)(C1)CC(N)(C3)C2", "note": "[memantine]", "values": [
      {"measurement": "efficacy in treating mild-to-moderate AD", "setting": "[5]", "result": "showed efficacy"}
    ]},
    {"smiles": "CS(=O)(=O)c1ccc(C2=C(c3ccccc3)C(=O)OC2)cc1", "note": "[rofecoxib]", "values": [
      {"measurement": "prevention of development of Alzheimer's disease", "setting": "[6]", "result": "failed to prevent the development of Alzheimer's disease"},
      {"measurement": "patients who developed AD", "setting": "[6]; placebo 4.5%", "result": 6.4, "unit": "%"},
      {"measurement": "neuroprotection", "setting": "[7]", "result": "provides neuroprotection"},
      {"measurement": "efficacy for treating AD", "setting": "[4]", "result": "failed to show efficacy"}
    ]}
  ]
}
